Laboratory results reported in patent US5475015A, “Benzimidazole derivatives, their preparation and pharmaceutical use” (NeuroSearch A/S, priority 1993, dated 1995).

Tests used:
BK channel [1] = test: Single channel experiments, inside-out patches of cerebellar granule cell membrane; type: cell-based; settings: 3 μM
Protocol: (§1) All experiments were performed with patch-clamp technique (Hamill et al., Pflugers Arch. 391, 85-100 (1981)). The ion composition of the internal solution was (in mM) 140 KCl, 1 CaCl2, 1 MgCl2, 2 EGTA, 10 HEPES and the external solution contained 140 NaCl, 4 KCl, 2 CaCl2, 1 MgCl2 and 10 HEPES.

Guinea pig trachea = test: Trachea experiment (vagus nerve stimulated pressure increase)
Source text: The compound, 5-trifluoromethyl-1-(5-trifluoromethyl-2-hydroxyphenyl)-1,3-dihydro-2H-benzimidazole-2-one, has been studied in a trachea model in which relaxation predicts anti-asthmatic potential.
Method: Guinea pig trachea is isolated with intact vagus nerve. Tubes are inserted into both ends and ligated tightly so the pressure in the fluid-filled lumen can be monitored. Electrical stimulation of the vagus nerve leads to a contraction and a pressure increase. The difference in electrically-stimulated pressure increase in the absence and presence of compound is measured.

BK channel [2] = test: Single channel experiments in cultured bovine aortic smooth muscle cells; type: cell-based; settings: 3 μM
Protocol: as §1

[3] = system: acetylcholine-contracted guinea-pig ileum; test: Guinea-pig ileum experiment (relaxation of acetylcholine-contracted ileum)
Protocol: The compound, 5-trifluoromethyl-1-(5-trifluoromethyl-2-hydroxyphenyl)-1,3-dihydro-2H-benzimidazole-2-one, has been studied for its ability to relax acetylcholine-contracted guinea-pig ileum. The smooth muscle cells of the ileum express many BK channels and the model predicts relaxing effects on the gastrointestinal or urogenital tracts. […] The effect of 30 μM compound is reversed by the BK channel blocker TEA+ (1-3 mM), confirming that the relaxing effect is mediated via BK channels.
Method: Ileum from guinea-pigs are isolated and mounted in an isometric contraction chamber. It is bathed in a physiological Krebs solution at 98° F. The ileum is precontracted with increasing concentrations of acetylcholine (0.015-5.0 μM). The contractions are reversed by including the compound in the bathing solution.

Cl- channels = test: Single channel experiments, inside-out patches of cerebellar granule cell membrane: Cl- channels; type: cell-based; settings: 3 μM
Protocol: as §1
(§2) In inside-out patches of cerebellar granule cell membrane single BK channels were activated by for example 5-trifluoromethyl1-(5-trifluoromethyl-2-hydroxyphenyl)-1,3-dihydro-2H-benzimidazole-2-one (3 μM). […] No effect was found on the delayed rectifier K+ channel or on the Cl- channels also present in the patches.

[4] = system: delayed rectifier K+ channel; test: Single channel experiments, inside-out patches of cerebellar granule cell membrane: delayed rectifier; type: cell-based; settings: 3 μM
Protocol: as §1, §2

[5] = system: calf aortic smooth muscle cells; test: Whole-cell current clamp recording of membrane potential; type: cell-based; settings: 10 μM to the bath
Protocol: as §1
The membrane potential of calf aortic smooth muscle cells was determined in whole-cell recordings using current clamp mode (HEKA EPC-9 patch-clamp amplifier). Due to the high-resistance seal and the large size of these cells the recorded membrane potential stayed stable for periods of 30-60 min, although at somewhat depolarized values (-58--22 mV). Administration of for example 1-(5-trifluoromethyl-2-hydroxyphenyl)-5-trifluoromethyl-1,3-dihydro-2H-benzimidazol-2-one (10 μM) to the bath hyperpolarized the cells after a delay of 1-3 min. The average hyperpolarization was -20 mV (SD=-9 mV, n=7), and the effect was largest in the cells being most depolarized prior to administration of the compound.
The equilibrium potential for K+, Cl-, and Na+ in these experiments were -90 mV, 0 mV, and +90 mV, respectively (cf. ion composition above). Thus, since potassium is the only ion having a reversal potential more negative than the resting membrane potential the observed hyperpolarization induced by the test compound must be explained through an increased potassium conductance.

[6] = system: cocaine induced hypermotility; test: Cocaine motility test; type: in vivo, NMRI mice
Protocol: The compound, 5-trifluoromethyl-1-(5-trifluoromethyl-2-hydroxyphenyl)-1,3-dihydro-2H-benzimidazole-2-one, has been studied in the cocaine motility test. Cocaine induces hypermotility due to an inhibition of dopamine reuptake. The test is recognized as a test predicting anti-psychotic activity.
Method: Two female NMRI mice (20-25 g) are placed in each test box (normal transparent plexiglas cage, w, l, h=21×39×19 cm ) in the test room for at least 16 hours with food and water ad libitum before the test in order for the animals to habituate to the situation. The test compound is administered i.p. 15 min before saline or 25 mg/kg cocaine i.p. to 32 mice (16 boxes) per dose. Food and water are withdrawn, and the motility is measured as the number of interrupted infrared photo-beams (8 per box placed 5 cm apart and 3 cm over the bottom of the cage) in the next 120 min.

## O=c1[nH]c2cc(C(F)(F)F)ccc2n1-c1cc(C(F)(F)F)ccc1O [Example 6, 1-(2-Hydroxy-5-trifluoromethylphenyl)-5-trifluoromethyl-1,3-dihydro-2H-benzimidazol-2-one]
BK channel [1]
  increase of the open probability of the BK channel: several hundred percent
Guinea pig trachea; 10 μM compound
  potentiation of the relaxing effect of lemakalim: 10 x
Guinea pig trachea; 10-100 μM
  relaxation of trachea: relaxes trachea in a dose-dependent way
BK channel [2]
  activation of the BK channel: significantly activated
[3]; 30 μM compound, TEA+ 1-3 mM
  effect of BK channel blocker TEA+ on the relaxing effect: reversed
[3]; 3-30 μM
  relaxation of acetylcholine-contracted ileum: relaxes the ileum in a dose-dependent way
Cl- channels
  effect on the Cl- channels: No effect
[4]
  effect on the delayed rectifier K+ channel: No effect
[5]
  delay before hyperpolarization of the cells: 1 to 3 min
[5]; current clamp, SD=-9 mV, n=7
  average hyperpolarization: -20 mV
[6]; 30 mg/kg, without cocaine
  effect of compound by itself on motility: weak hyperactivity
[6]; 1-10 mg/kg i.p. 15 min before 25 mg/kg cocaine i.p., mice, motility over 120 min
  antagonism of cocaine induced hypermotility: antagonizes cocaine induced hypermotility
